# Experimental data published in paper PMC5780493, “Epsin and Sla2 form assemblies through phospholipid interfaces” (Nature Communications, 2018).
# T1: ENTH1 (Ent1 ENTH domain, S. cerevisiae) (Saccharomyces cerevisiae, UniProt Q12518)
# T1 construct: ENTH domain (N-terminal); purified recombinant
# T1 sequence (Q12518 1-154): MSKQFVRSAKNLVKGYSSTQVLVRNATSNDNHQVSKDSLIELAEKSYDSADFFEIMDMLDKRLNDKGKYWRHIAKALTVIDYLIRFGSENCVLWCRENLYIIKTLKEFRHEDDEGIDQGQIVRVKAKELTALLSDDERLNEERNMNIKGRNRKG
# T2: ANTHSla2 (S. cerevisiae) (Saccharomyces cerevisiae, UniProt P33338)
# T2 construct: gene SLA2; ANTH domain (N-terminal); purified recombinant
# T2 sequence (P33338 1-360 limits assumed): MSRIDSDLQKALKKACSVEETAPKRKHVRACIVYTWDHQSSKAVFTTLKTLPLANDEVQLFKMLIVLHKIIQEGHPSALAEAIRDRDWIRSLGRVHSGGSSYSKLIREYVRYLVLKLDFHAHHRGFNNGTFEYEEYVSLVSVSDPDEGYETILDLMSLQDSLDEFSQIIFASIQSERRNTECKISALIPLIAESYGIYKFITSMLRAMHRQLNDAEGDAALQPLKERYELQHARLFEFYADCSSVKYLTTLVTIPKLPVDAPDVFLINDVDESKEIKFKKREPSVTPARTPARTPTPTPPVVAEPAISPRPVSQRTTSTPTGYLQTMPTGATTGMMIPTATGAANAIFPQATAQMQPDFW
# T3: human epsin-1 ENTH (EPN1) (Homo sapiens, UniProt Q9Y6I3)
# T3 construct: ENTH domain aa 1-158, extra Gly after start Met; E. coli His-GST fusion, tag cut with TEV; hexamer with PIP2
# T3 sequence (Q9Y6I3 1-158): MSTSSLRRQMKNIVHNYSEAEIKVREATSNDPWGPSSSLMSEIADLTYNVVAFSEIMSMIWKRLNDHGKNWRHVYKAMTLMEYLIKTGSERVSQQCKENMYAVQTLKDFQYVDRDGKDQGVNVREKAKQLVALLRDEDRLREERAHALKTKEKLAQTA
# T4: ENTH2 (Ent2 ENTH domain, S. cerevisiae) (Saccharomyces cerevisiae, UniProt Q05785)
# T4 construct: ENTH domain (N-terminal); purified recombinant; two domains sandwich one PIP2 in the crystal
# T4 sequence (Q05785 1-156): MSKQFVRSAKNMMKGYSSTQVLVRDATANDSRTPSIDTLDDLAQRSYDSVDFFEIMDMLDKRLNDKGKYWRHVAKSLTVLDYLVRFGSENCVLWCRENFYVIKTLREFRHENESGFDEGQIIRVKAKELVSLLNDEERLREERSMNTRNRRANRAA
# T5: ENTH (epsin ENTH domain, C. thermophilum) (Thermochaetoides thermophila, UniProt G0SAK2)
# T5 construct: ENTH domain; E. coli, N-terminal His6 tag cut with TEV
# T5 sequence (G0SAK2 with tags, fused parts or gaps): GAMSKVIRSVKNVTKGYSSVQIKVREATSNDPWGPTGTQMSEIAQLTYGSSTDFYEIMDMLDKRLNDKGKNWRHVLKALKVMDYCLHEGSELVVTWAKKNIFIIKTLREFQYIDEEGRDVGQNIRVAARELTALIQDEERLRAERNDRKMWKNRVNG
# T6: ENTH1 (Ent1 ENTH domain, S. cerevisiae) (Saccharomyces cerevisiae, UniProt Q12518, T104E)
# T6 construct: ENTH domain (N-terminal); purified recombinant
# T6 sequence (Q12518 1-154 T104E): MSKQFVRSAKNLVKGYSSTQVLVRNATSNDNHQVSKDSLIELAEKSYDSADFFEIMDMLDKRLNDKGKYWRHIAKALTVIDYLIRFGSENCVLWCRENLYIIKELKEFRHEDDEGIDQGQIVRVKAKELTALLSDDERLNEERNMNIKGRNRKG
# T7: human epsin-1 ENTH/Hip1R ANTH complex (Homo sapiens, UniProt O75146+Q9Y6I3)
# T7 construct: gene EPN1; EPN1 aa 1-158 (extra Gly after Met) and Hip1R aa 1-300; His-GST tags cut with TEV; 6:0 to 8:8, mainly 6:6
# T7 sequence (Q9Y6I3 1-158): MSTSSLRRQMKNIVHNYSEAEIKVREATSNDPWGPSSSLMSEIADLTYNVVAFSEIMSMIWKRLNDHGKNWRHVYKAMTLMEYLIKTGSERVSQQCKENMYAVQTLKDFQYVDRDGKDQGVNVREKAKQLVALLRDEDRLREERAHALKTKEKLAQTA
# T7 sequence (O75146 1-300): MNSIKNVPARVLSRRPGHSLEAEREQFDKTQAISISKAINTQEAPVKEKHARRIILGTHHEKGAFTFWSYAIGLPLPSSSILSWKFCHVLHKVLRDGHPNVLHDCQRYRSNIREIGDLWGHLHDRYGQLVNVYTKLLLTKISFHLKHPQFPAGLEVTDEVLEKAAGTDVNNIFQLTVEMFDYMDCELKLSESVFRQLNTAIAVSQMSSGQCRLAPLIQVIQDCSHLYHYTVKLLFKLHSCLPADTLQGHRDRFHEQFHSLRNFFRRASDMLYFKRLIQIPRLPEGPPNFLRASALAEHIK
# T8: CALM ANTH domain (Homo sapiens, UniProt Q13492)
# T8 construct: gene PICALM; ANTH domain; E. coli, N-terminal His6 tag cut with TEV
# T8 sequence (Q13492 1-289 limits assumed): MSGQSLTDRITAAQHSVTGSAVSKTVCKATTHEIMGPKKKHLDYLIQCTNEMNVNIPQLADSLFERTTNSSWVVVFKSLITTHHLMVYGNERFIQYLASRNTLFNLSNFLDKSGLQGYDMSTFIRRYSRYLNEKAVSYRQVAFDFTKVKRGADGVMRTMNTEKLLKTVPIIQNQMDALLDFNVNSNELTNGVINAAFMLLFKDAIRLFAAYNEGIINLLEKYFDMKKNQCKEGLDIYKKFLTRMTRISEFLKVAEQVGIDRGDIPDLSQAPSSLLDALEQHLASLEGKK
# T9: Epsin (Ent1) ENTH (Saccharomyces cerevisiae, UniProt Q12518)
# T9 chain: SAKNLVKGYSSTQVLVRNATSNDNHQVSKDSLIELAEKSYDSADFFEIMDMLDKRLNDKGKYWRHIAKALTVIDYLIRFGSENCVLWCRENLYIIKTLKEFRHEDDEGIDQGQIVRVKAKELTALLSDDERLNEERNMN
# Experiments:
# [1] = target: T1, ENTH1 (Ent1 ENTH domain, S. cerevisiae); experiment: native MS titration, corrected for unspecific binding; conditions: ammonium acetate 300 mM, 1 mM DTT, pH 8.0; 10 uM protein, 60 uM PIP2; two sites, positive cooperativity
# ANTHSla2 (S. cerevisiae) [2] = target: T2, ANTHSla2 (S. cerevisiae); experiment: as above; conditions: ammonium acetate 300 mM, 1 mM DTT, pH 8.0; 10 uM protein, 60 uM PIP2; second site (canonical site removed)
# [3] = target: T3, human epsin-1 ENTH (EPN1); experiment: native MS; SAXS; format: binding; conditions: hexamer formation with PIP2; SAXS in 20 mM Tris-HCl pH 8.0, 250 mM NaCl, 0.2 mM PIP2
# [4] = target: T4, ENTH2 (Ent2 ENTH domain, S. cerevisiae); experiment: X-ray crystal structure, […] A; format: binding; conditions: 0.1 M MES pH 6.5, 1.45 M ammonium sulfate; canonical phosphoinositide pocket, dimer interface
# ANTHSla2 (S. cerevisiae) [5] = target: T2, ANTHSla2 (S. cerevisiae); experiment: native MS titration, corrected for unspecific binding; conditions: ammonium acetate 300 mM, 1 mM DTT, pH 8.0; 10 uM protein, 60 uM PIP2; two sites, positive cooperativity
# [6] = target: T5, ENTH (epsin ENTH domain, C. thermophilum); experiment: as above; conditions: ammonium acetate 300 mM, 1 mM DTT, pH 8.0; 10 uM protein, 60 uM PIP2; two sites, positive cooperativity
# [7] = target: T6, ENTH1 (Ent1 ENTH domain, S. cerevisiae); experiment: native MS; format: binding; conditions: ammonium acetate, 1 mM DTT, pH 8.0; 10 uM protein, 60 uM PIP2
# [8] = target: T7, human epsin-1 ENTH/Hip1R ANTH complex; experiment: native MS of assembled complex; format: binding; conditions: ammonium acetate 300 mM, 1 mM DTT, pH 8.0; 10 uM ENTH, 10 uM ANTH, 60 uM PIP2; stoichiometry
# CALM ANTH domain = target: T8, CALM ANTH domain; experiment: native MS titration, corrected for unspecific binding; conditions: ammonium acetate 300 mM, 1 mM DTT, pH 8.0; 10 uM protein, 60 uM PIP2; two sites, not cooperative
# [9] = target: T10, ANTHSla2 (C. thermophilum), ANTHCh (Thermochaetoides thermophila, UniProt G0S106); experiment: as above; conditions: ammonium acetate 300 mM, 1 mM DTT, pH 8.0; 10 uM protein, 60 uM PIP2; two sites
# T10 construct: gene CTHT_0011900; ANTH domain; E. coli, N-terminal His6 tag cut with TEV
# T10 sequence (G0S106 entry or part of it): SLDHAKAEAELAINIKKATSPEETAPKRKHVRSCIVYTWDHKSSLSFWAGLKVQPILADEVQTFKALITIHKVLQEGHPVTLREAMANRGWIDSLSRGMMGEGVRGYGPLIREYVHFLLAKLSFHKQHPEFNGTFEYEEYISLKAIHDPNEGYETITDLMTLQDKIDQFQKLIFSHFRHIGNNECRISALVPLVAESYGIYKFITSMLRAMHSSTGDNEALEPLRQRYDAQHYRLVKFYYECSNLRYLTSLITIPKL
# [10] = target: T4, ENTH2 (Ent2 ENTH domain, S. cerevisiae); experiment: as above; conditions: ammonium acetate 300 mM, 1 mM DTT, pH 8.0; 10 uM protein, 60 uM PIP2; two sites, positive cooperativity
# Epsin (Ent1) ENTH = target: T9, Epsin (Ent1) ENTH; experiment: ITC
molecule,measurement,setting,value
CCCCCCCC(=O)OC[C@H](COP(=O)(O)O[C@@H]1[C@H](O)[C@H](O)[C@@H](OP(=O)(O)O)[C@H](OP(=O)(O)O)[C@H]1O)OC(=O)CCCCCCC [PIP2],"KD,1 / KD,2 (macroscopic)",[1],ENTH1 and ENTH2) from S. cerevisiae
same,dissociation constant,ANTHSla2 (S. cerevisiae) [2],300 ± 70 µM
same,native MS; SAXS,[3],A minimum of six PIP2 molecules is required for human ENTH hexamer formation
same,"X-ray crystal structure, 3.35 A",[4],The structure shows two ENTH2 domains sandwiched around one PIP2 molecule
same,"KD,1 / KD,2 (macroscopic)",ANTHSla2 (S. cerevisiae) [5],PIP2 dissociation constants are higher for Sla2 ANTH domains than for ENTH domains
same,"KD,1 / KD,2 (macroscopic)",[6],homologous epsin from C. thermophilum bind up to two PIP2 molecules per domain
same,native MS,[7],Thr104Glu mutant of ENTH1 from S. cerevisiae shows a reduction of PIP2 binding
same,native MS of assembled complex,[8],human epsin-1 ENTH domain with human Hip1R ANTH domain and PIP2
same,"KD,1 / KD,2 (macroscopic)",CALM ANTH domain,macroscopic dissociation constants for CALM suggest higher affinity for the first PIP2-binding site
same,"KD,1 / KD,2 (macroscopic)",[9],"several ANTH domains, showing two PIP2 binding sites for all wild-type proteins"
same,"KD,1 / KD,2 (macroscopic)",[10],ENTH1 and ENTH2) from S. cerevisiae
"Sla2 ANTH (protein, PIP2) MSRIDSDLQKALKKACSVEETAPKRKHVRACIVYTWDHQSSKAVFTTLKTLPLANDEVQLFKMLIVLHKIIQEGHPSALAEAIRDRDWIRSLGRVHSGGSSYSKLIREYVRYLVLKLDFHAHHRGFNNGTFEYEEYVSLVSVSDPDEGYETILDLMSLQDSLDEFSQIIFASIQSERRNTECKISALIPLIAESYGIYKFITSMLRAMHRQLNDAEGDAALQPLKERYELQHARLFEFYADCSSVKYLTTLVTIPKLPVDAPDVFLINDVDESKEIKFKKREPSVT",Kd,Epsin (Ent1) ENTH,450 nM
